Consider 15 compounds from patent US12648569B2 (priority 2022, dated 2026).

Structures can show the parent of a compound that is named as a salt.

In one test the test system is M173.
Conditions: not given
Take `CN(C)C(=S)SSC(=S)N(C)C` [Thiram]: the Compatibility result was “Compatible”.

As to `O=[N+]([O-])c1c(Cl)c(Cl)c(Cl)c(Cl)c1Cl` [Quintozene], the Compatibility entry was “Compatible”.

Consider `O=[N+]([O-])c1cc(C(F)(F)F)c(Cl)c([N+](=O)[O-])c1Nc1ncc(C(F)(F)F)cc1Cl` [Fluazinam], for which the Compatibility entry is reported as “Compatible”.

Turning to `CCCOC(=O)NCCCN(C)C` [Propamocarb hydrochloride], the Compatibility result is reported as “Compatible”.

Regarding `N.N.O=S(=O)(O)O` [Ammonium sulfate], the Compatibility entry is reported as “Compatible”.

With `CCO[PH](=O)O` [Fosetyl-aluminum], the Compatibility result is reported as “Compatible”.

For `COCC(=O)N(c1c(C)cccc1C)[C@H](C)C(=O)OC` [Metalaxyl-M], the Compatibility entry is given as “Compatible”.

With `N#Cc1c(Cl)c(Cl)c(Cl)c(C#N)c1Cl` [Chlorothalonil], the Compatibility result is listed as “Compatible”.

Take `O=P([O-])(O)O.[K+]`: the Compatibility entry is “Compatible”.

With `CN/C(=N/CC1CCOC1)N[N+](=O)[O-]` (stereo not shown) [Dinotefuran], the Compatibility result is given as “Compatible”.

As for `CN1COCN(Cc2cnc(Cl)s2)/C1=N\[N+](=O)[O-]` [Thiamethoxam], the Compatibility result is reported as “Compatible”.

In the case of `COC(=O)Nc1nc2ccccc2[nH]1` [Carbendazim], the Compatibility entry was “Compatible”.

Turning to `CC1(C)[C@H](C(=O)O[C@H](C#N)c2cccc(Oc3ccccc3)c2)[C@@H]1/C=C(\Cl)C(F)(F)F` [Gamma-cyhalothrin], the Compatibility entry is given as “Compatible”.

As for `NC(N)=O` [Urea], the Compatibility result is on record as “Compatible”.

The next test relates to Ralstonia solanacearum R.s (MN R.s1). The format is in vivo. Conditions: tomato seedlings, roots soaked 10 min, R.s irrigated after 7 d.
Take neophytomycin [Positive control group]: the Control effect/% was 37.30%, the Disease index/% is listed as 14.00% and the Morbidity/% was 16.70%.

A further test deals with Ralstonia solanacearum MN R.s1 strain. Format: in vivo. The note with it: tomato seedlings, leaf cutting with scissors soaked in agent + R.s suspension, 7 d at 30° C.
Regarding neophytomycin [Positive control group], the Mortality/% is 16.67%.

Staying with this test, now noted: tomato seedlings, leaf cutting, relative to negative control.
In the case of neophytomycin [Positive control group], the Relative control effect/% stood at 81.01%.
